How the values were obtained:
9L-lacZ cells = test: Bystander cytotoxicity in co-culture with lacZ-marked 9L cells; format: cell-based, rat; conditions: 1 mM CPA, 5 days
Procedure: CYP2B1^+ cells (FIG. 6A) and CYP2B1^+ RED^++ cells (FIG. 6C) were mixed with equal numbers of lacZ-marked 9L cells and cultured in the absence (FIGS. 6A and 6C) or in the presence (FIGS. 6B and 6D) of 1 mM CPA. Shown are 0.5% glutaraldehyde-fixed cells, 5 days after beginning drug treatment, stained with X-Gal for 4 hours to visualize the 9L-lacZ cells (dark staining).

CYP2B1 = test: Fluorometric assay of 4-hydroxy-CPA in culture medium of 9L tumor cells (Example 1); format: in vitro ADME, rat; conditions: 2 mM CPA, 24 h
Procedure: FIG. 7 is a bar graph showing that higher 4-hydroxy-CPA levels are produced by P450 and RED-containing tumor cells compared to tumor cells containing P450 alone. The parental CYP2B1^+ cell lines P3 and P17, and their corresponding RED overexpressing derivatives PR11 and PR7 were plated confluent (1.5×10^6 cells per 30 mm culture dish) so that the cell number remained relatively constant during the course of the experiment. Cells were incubated for 24 hours with 2 mM CPA in the presence of 5 mM semicarbazide. Medium was collected and then assayed for 4-hydroxy-CPA using a fluorometric assay, as described below in the "Materials and Methods" section of Example 1. Limit of detection in this assay was approximately 1 μM 4-hydroxy-CPA. The higher CPA 4-hydroxylase activity of line P 17 compared to line P3 is consistent both with the higher cytotoxic potential of CPA-conditioned media from P17 cells (FIG. 5), and with the greater cytotoxicity of CPA toward the P 17 cells in vitro (FIGS. 2, 3) and in vivo (FIG. 9, below).

[1] = tested on: 9L and 9L-R cells infected with Ad.CMV-2B1; test: Adenovirus-mediated CYP2B1 gene transduction, CPA cytotoxicity (XTT); format: cell-based, rat
Procedure: FIGS. 8A and 8B are graphs depicting much greater cytotoxicity of adenovirus-mediated P450 gene transfer combined with CPA treatment in the case of 9L tumor cells engineered to express RED (FIG. 8B), compared to wild-type 9L cells that express basal RED activity (FIG. 8A). Cells were infected with Ad.CMV-2B1 at multiplicities of infection (MOI) ranging from 50-800, as indicated by the values in parenthesis on the right of each panel. Uninfected cells (UI) were used as controls. At 24 hours post infection, cells were replated at 500 cells per well in duplicate on 96-well plates. CPA was then added at concentrations up to 2 mM. After 5 days of incubation, cell survival was determined by an XTT colorimetric assay.
Adenovirus-mediated CYP2B1 gene transduction: A recombinant adenovirus, Ad.CMV-2B1, carrying the CYP2B1 gene was constructed as described in Chen, L., et al., Cancer Res. 56:1331-1340 (1996). Large scale production of recombinant adenovirus was performed by growth in 293 cells followed by purification by double cesium gradient ultracentrifugation (Graham, F. L. and Prevec, L., "Manipulation of Adenovirus Vectors" in Methods in Molecular Biology:Gene Transfer and Expression Protocols, volume 7, E. J. Murray (ed.), The Human Press, Inc., Clifton, N.J., pages 109-127 (1991)). The titer of purified adenovirus was determined in a spectrophotometer at 260 nm and by plaque assays. Ad.CMV-2B1 was added to the cells plated on 30 mm diameter tissue culture plates at multiplicities of infection (MOI) as indicated in the figure legends. Twenty four hours after viral infection, the infected cells were trypsinized and replated at 500 cells/well onto 96 well tissue culture plates and treated with CPA. Four to seven days after CPA treatment, the number of surviving cells was determined using the XTT assay described above.

[2] = tested on: human P450 genes expressed in 9L cells; test: Semicarbazide trapping/fluorescence assay for 4-hydroxy metabolites in 9L/P450 cells; format: in vitro ADME; conditions: 2 mM, 24 h
Procedure: Each of the indicated 9L cell lines was seeded on a 48-well plate in duplicate at 2×10^4 cells/well. […] Background fluorescence observed in 9L/Babe cells was subtracted from each sample.
Semicarbazide trapping/fluorescence assay for 4-hydroxy metabolites: 9L/P450 cells were seeded on a 48 well plate in duplicate at 2×10^4 cells/ well. […] Culture media, 400 μl, was removed and then treated with 160 μl of ice cold 5.5% (w/v) ZnSO4, 160 μl ice cold saturated Ba(OH)2, and 80 μl ice cold 0.01 M HCl. The mixture was vortexed and then centrifuged at 16,000 g for 15 minutes. 300 μl of the supernatant was transferred under dim light to a clean tube containing 540 μl of water and 160 μl of freshly prepared fluorescent reagent (60 mg 3-aminophenol and 60 mg hydroxylamine-HCl per 10 ml of 1 M HCl). The tubes were vortexed and heated at 90° C. for 20 minutes. Fluorescent readings were obtained at 350 nm (excitation), and 515 nm (emission) using 800 μl of each sample. Fluorescent values were converted to nmol 4-hydroxy metabolite/ml of original culture media based on standard curves generated using 4-hydroperoxy-CPA and then normalized to units of nmol 4-hydroxy metabolite formed per 24 hours per 10^6 cells.

[3] = in vivo; cited from earlier work
[4] = tested on: 9L gliosarcoma cells (parental, CYP2B1+, CYP2B1+ RED+++); test: In vitro growth inhibition assay, XTT (Example 1); conditions: lines PR11, PR7 vs P3, P17; growth inhibition assay
Procedure: Cells (1000/well) seeded in 96-well plates were treated with the indicated concentrations of CPA for 4 days. Corresponding controls received no drug treatment. Cell survival was determined by an XTT calorimetric assay. Data (mean for triplicate samples) were expressed as growth ratio (%), i. e., cell number (XTT activity) in drug treated plates as a percentage of the corresponding drug-free controls.
Cells (500/well) seeded in 96-well plates were treated with 1 mM cyclophosphamide in the absence or presence of the RED inhibitors AADP (0.5 mM) or DPI (5 μM). Corresponding controls received no drug treatment. Cell survival was determined by an XTT colorimetric assay. Data (mean for triplicate samples) are expressed as growth ratio (%), i.e., cell number (XTT activity) in drug treated plates as a percentage of the corresponding drug-free controls and are representative of 2-3 independent experiments. AADP and DPI were added to the cells 30 minutes prior to CPA treatment.
(B) Growth inhibition assay--Cells (1000/well) seeded in 96 well plates were treated with the indicated concentrations of CPA for 4-5 days. Corresponding controls received no drug treatment. Cell survival was determined by an XTT colorimetric assay, a cell proliferation assay that measures mitochondrial dehydrogenase activity of viable cells (Scudiero, D. A., et al., Cancer Res. 48:4827-4833 (1988)).

With `O=P1(N(CCCl)CCCl)NCCCO1` (stereo not shown) [CPA, cyclophosphamide] the “bystander cytotoxicity of CYP2B1+ 9L cells toward CYP2B1- 9L cells” value (9L-lacZ cells) was “substantial, albeit incomplete, bystander cytotoxicity”, the “bystander killing of 9L/lacZ cells by co-culture with CYP2B1+ RED+++ cells” value (9L-lacZ cells) was “near complete killing” and the “elimination of CYP2B1+ and CYP2B1+ RED+++ cells” value (9L-lacZ cells; unstained cells) was “essentially eliminated”. For the same compound, the “4-hydroxylated metabolites in 9L parental cells” value (CYP2B1) was “corresponds to the limit of detection”, the “levels of 4-hydroxy-CPA formed by CYP2B1+ RED+++ vs parental CYP2B1+ cell lines” value (CYP2B1; 5 mM semicarbazide) was “up to 3 fold” and the “CPA sensitivity of cells infected with Ad.CMV-2B1” value ([1]; MOI 50 to 800, most striking in RED overexpressing cells) was “acquired CPA sensitivity”. For the same compound, the “enhancement of drug cytotoxicity in Ad.CMV-2B1-infected cells at higher viral multiplicities” value ([1]; RED-overexpressing 9L cells) was “further enhanced”, the “CPA sensitivity of 9L cells infected with lacZ adenovirus” value ([1]; control experiment) was “did not sensitize the cells” and the “enhancement of drug cytotoxicity in Ad.CMV-2B1-infected cells at higher viral multiplicities” value ([1]; parental 9L cells, MOI above 200) was “not further enhanced”. For the same compound, the “effect of RED transduction on drug activation in 9L parental cells” value [2] was “did not stimulate drug activation”, the “effect of RED transduction on cytotoxic metabolites accumulating in the culture medium” value ([2]; CYP2B6 and CYP2C18-Met cells) was “significant increase in cytotoxic metabolites” and the “side effects of systemic distribution of drug and alkylating metabolites” value [3] was “cardiotoxicity, renal toxicity, marrow suppression, and neurotoxoxicity”. The “cytotoxic response of CYP2B1+ cells on RED overexpression” value [4] was “significantly enhanced the cytotoxic response”.

Source: US6207648A, “Methods of using cytochrome P450 reductase for the enhancement of P450-based anti-cancer gene therapy” (priority 1998, dated 2001)
